The subject of test [1] is PD-L1 expression in MC38, HCT116 colon cancer cell lines. The experiment in a line: PD-L1 expression in colon cancer cell lines. The class given is cell-based, mouse (MC38), human (HCT116). How it is done: (§1) FIGS. 8A-8G depict that WFA induced ICD and PD-L1 upregulation in colorectal cancer cell lines. WFA increased the levels of ecto-CRT in the murine colorectal cancer cell line (FIG. 8A) MC-38 and human cell line (FIG. 8B) HCT-116. WFA increased the expression of PD-L1 in both (FIG. 8C) MC-38 and (FIG. 8D) HCT-116 cells. […] H1650 cells (at a higher density) were treated with a higher concentration of WFA (2 and 4 μM) to facilitate cell collection and protein isolation. The band density was quantified using Image J software and normalized to the housekeeping protein. The fold change from untreated control was averaged from two independent experiments ±SEM and one-way ANOVA was used to calculate the statistical significance. A Fisher LSD post hoc test was performed to compare the treatments to the control in (FIG. 8E) LLC, (FIG. 8F) H1650, (FIG. 8G) A549 cells. * p<0.05, ** p<0.01, *** p<0.001, **** p<0.0001.
(§2) In vitro WFA-treated or control cells were collected using Accutase cell detachment solution and stained with FACS-diluted (PBS, 10% FBS, 2 mMEDTA) pre-titrated fluorophore conjugated or primary unconjugated antibody solutions (Table 1) for 30 min on ice in the dark. […]

In test [2] the test system is ROS levels in NSCLC cell lines. The experiment in a line: ROS levels with ROS indicator CM-H2DCFDA. It is filed as cell-based, mouse (LLC), human (H1650. To be noted: 24 h; WFA 0.6 μM (LLC, H1650), 4 μM (A549); NAC 5 mM.
In test [3] the test system is PD-L1 upregulation in MC-38, HCT-116, 4T-1, and MDA-MB-231 cell lines. The test is described as follows: PD-L1 with WFA and NAC in colorectal and breast cancer cell lines. The class given is cell-based, mouse (MC-38, 4T1), human (HCT-116. As to conditions: breast cancer cell lines (4T1 1 μM, MDA-MB-231 2 μM WFA).
The subject of test [4] is ecto-CRT in LLC, H1650 and A549 cells. The test is described as follows: Ecto-CRT (cell surface calreticulin) by flow cytometry, NSCLC. As to conditions: 48 h. It is filed as cell-based, mouse (LLC), human (H1650. How it is done: Cells were treated with WFA for 48 h then collected using Accutase cell detachment solution. […] (FIG. 2E) Bone marrow-derived DC were co-cultured with WFA-pretreated LLC cells (24 h) in a ratio 5:1 of DC:LLC cells for 24 h.
In vitro WFA-treated or control cells were collected using Accutase cell detachment solution and stained with FACS-diluted (PBS, 10% FBS, 2 mMEDTA) pre-titrated fluorophore conjugated or primary unconjugated antibody solutions (Table 1) for 30 min on ice in the dark. In case of fluorophore-conjugated antibodies, samples are washed and immediately acquired after adding DAPI viability dye, while samples stained with unconjugated antibodies are incubated with the proper secondary fluorophore-conjugated antibody for 30 min before washing and acquisition. For in vivo experiments, the processed tumor or spleen single cell suspensions were used for surface staining with the pre-titrated antibodies (Table 1) for 30 min on ice in the dark. To exclude the dead cells from the analysis, a fixable live/dead Zombie Aqua viability kit (Biolegend, San Diego, CA, USA) was used according to the manufacturer's protocol. Samples were then fixed using 2% PFA for 15 min then washed and stored at 4° C. before acquisition. […]

The test system of test [5] is apoptotic marker transcripts in NSCLC cell lines. The experiment in a line: qRT-PCR of pro- and anti-apoptotic transcripts. It is filed as cell-based, mouse (LLC), human (H1650, A549). How it is done: FIGS. 1A-lE depict that WFA induces ER stress-mediated apoptosis in NSCLC cell lines. (FIG. 1A) NSCLC cells were plated on 96-well plates and treated with different concentrations of WFA ([…]) in triplicates. Forty-eight hours post-treatment, cell viability was determined using Cell Titer-Glo assay. Luminescence values were normalized to control untreated cells and IC50 values are represented as the mean of two independent experiments ±SEM. (FIG. 1B) NSCLC cells were treated WFA for forty-eight hours, then collected to measure apoptotic cell death using Annexin V assay in LLC cells, H1650 cells, and A549 cells. Percentages of early (annexin*DAPI-) and late (annexin*DAPI+) apoptotic cells are represented as means of two separate experiments ±SEM and statistical significance was calculated using one-way ANOVA and a Fisher LSD post hoc test was used to compare the mean of each group to that of the control group. (FIGS. 1C-1D) WFA treated cells were collected in Trizol and total RNA was isolated to measure the levels of Bax (FIG. 1C) and Bcl2 (FIG. 1D) mRNA using qRT-PCR. PCR experiments were repeated at least twice, and one representative experiment is shown as mean±SEM of the technical replicates. (FIG. 1E) Western blot of ER stress markers p-eIF-2 and CHOP was performed using total lysates of WFA-treated LLC cells. The quantification of western blot band density was performed using Image J software v.1.54d and normalized to housekeeping control protein in LLC cells (0-actin). […] Data were obtained from two independent experiments.
FIGS. 7A-7I depict qRT-PCR analysis of the change in expression of pro-apoptotic and anti-apoptotic induced by WFA treatment. WFA increased the mRNA levels of proapoptotic protein Bak-1 in (FIG. 7A) LLC cells and BAD in (FIG. 7C) H1650 cells. […] PCR was repeated twice, and one representative experiment is shown as mean±SEM of 3 technical replicates. […] (FIGS. 7G-7I) Western blots.
Total cellular RNA was isolated from collected cell pellets using TRIzol reagent (Invitrogen, Waltham, MA, USA) and then quantified using the 2000 Nanodrop spectrophotometer (Thermo Fisher Scientific, Waltham, MA, USA). cDNA synthesis was performed using the Verso cDNA synthesis kit (Thermo Fisher Scientific, Waltham, MA, USA). qPCR was then performed using Forget-Me-Not EvaGreen qPCR Master Mix (Biotium, Fremont, CA, USA) in a Bio-Rad CFX384 thermocycler according to the manufacturer's instructions. The CFX Maestro software version 2.3 (Bio-Rad, Hercules, CA, USA) was used to calculate the ΔCt and ΔΔCt values and gene expression was normalized to housekeeping genes glyceraldehyde 3-phosphate dehydrogenase (GAPDH) or β-actin. The sequences of PCR primers used are listed in Table 2 (Integrated DNA Technologies, Inc, Coralville, IA, USA).

Test [6] deals with bone marrow-derived DCs co-cultured with WFA-pretreated LLC. To be noted: DC:LLC 5:1, 24 h co-culture, vs untreated LLC.
Description: Cells were treated with WFA for 48 h then collected using Accutase cell detachment solution. […] (FIG. 2E) Bone marrow-derived DC were co-cultured with WFA-pretreated LLC cells (24 h) in a ratio 5:1 of DC:LLC cells for 24 h. DC activation markers (CD80, CD86, and MHC-II) were examined by flow cytometry. The means of at least 2 independent experiments ±SEM is represented, and one-way ANOVA was used to calculate statistical significance where * denotes p<0.05, ** denote p<0.01, *** denote p<0.001, and **** denote p<0.0001.
Hierarchical gating was used to identify the total cell population followed by single live cells the CD11C+DC. Out of the CD11C population, the expression of DC cell activation markers was determined based on the fluorescence minus one (FMO) controls.
Myeloid progenitor cells were isolated from the femurs of C57BL/6 mice as described previously [37]. The isolated cells were cultured in RMPI media supplemented with GMCSF and refed as necessary. On day 8, the differentiated DCs (loosely attached) were collected, counted, and added to WFA-pretreated LLCs or untreated control LLCs at a ratio of 5:1 of DC: LLC cells. […] Then the samples were acquired using a BD LSR II flow cytometer and the data were analyzed using FlowJo 8.7 software (BD, Franklin Lakes, NJ, USA).
In test [7] the test system is ecto-CRT in MC38 and HCT-116 colorectal cancer cell lines. The experiment in a line: Ecto-CRT by flow cytometry, colorectal cancer. The class given is cell-based, mouse (MC38), human (HCT-116). How it is done: as §1, §2

Each structure is given as a SMILES string.

Consider `CC1=C(CO)C(=O)O[C@@H]([C@@H](C)[C@H]2CC[C@H]3[C@@H]4C[C@H]5O[C@]56[C@@H](O)C=CC(=O)[C@]6(C)[C@H]4CC[C@]23C)C1` [WFA, Withaferin A], for which the PD-L1 expression entry in test [1] is “increased”. Moreover, the ROS levels entry in test [2] was “increased”. For the same compound, the PD-L1 expression entry in test [3] is listed as “increases”. Also, the ecto-CRT expression entry in test [4] was “increased”. Besides, in test [5], the Bax transcripts result is given as “increased” and the Bcl-2 transcripts entry is “reduced”. For the same compound, the BAD transcripts result in test [5] (H1650 cells) is “increased”. Besides, in test [5] (LLC and A549), the Survivin transcripts result is “reduced” and the Xiap transcripts entry is on record as “reduced”. For the same compound, in test [5] (LLC cells), the Bak-1 transcripts result was “increased”. Further, the “DC activation markers CD80, CD86, MHC-II” value in test [6] was “higher levels”. For the same compound, in test [7], the “levels of ecto-CRT” value is on record as “increased”.

Source of the values: US20240293430A1, “WITHAFERIN A AND IMMUNE CHECKPOINT BLOCKER COMBINATION THERAPIES” (University of South Florida, priority 2023, published 2024).
